From ChEMBL document CHEMBL3997802, “Design, Synthesis, and Evaluation of Isaindigotone Derivatives To Downregulate c-myc Transcription via Disrupting the Interaction of NM23-H2 with G-Quadruplex” (J Med Chem, 2017)
Values belong to the compound of their own block, whether it stands above or below them. Calls of active or inactive are those of the source. The calls are words filed in the database; no cut-off is given here.

Assays:
[1] = Transrepression of c-Myc Pu43 G-quadruplex DNA (unknown origin) expressed in human SiHa cells at 8 uM after 48 hrs by luciferase reporter gene assay relative to control; type: cell-based
Homo sapiens [2] = species on record: Homo sapiens; experiment: Inhibition of NM23-H2 binding to c-Myc G-quadruplex DNA in human SiHa cells assessed as downregulation of c-Myc mRNA level after 4 days by RT-PCR method; type: cell-based
[3] = Inhibition of thiazole orange binding to c-Myc Pu27 G-quadruplex DNA (unknown origin) at 10 uM after 30 secs by fluorescence spectrophotometric method
SiHa [4] = experiment: Cytotoxicity against human SiHa cells assessed as reduction in cell viability up to 8 uM after 48 hrs by MTT assay; type: cell-based
[5] = Inhibition of thiazole orange binding to c-Myc Pu18 G-quadruplex DNA (unknown origin) at 10 uM after 30 secs by fluorescence spectrophotometric method
[6] = Inhibition of 5'-biotin-labeled c-Myc Pu18 G-quadruplex DNA (unknown origin) interaction with His-tagged NM23-H2 assessed as ratio of Kd for NM23-H2-DNA complex in presence of compound to Kd for […]-DNA complex in absence of compound at 20 uM preincubated with NM23-H2 for 1 hr followed by addition of DNA measured after overnight incubation by ELISA
[7] = Growth inhibition of mouse primary mesangial cells at 0.25 to 1 times cytotoxic IC50 after 100 hrs by real time cellular analysis; type: cell-based; conditions: primary mesangial cell
Homo sapiens [8] = species on record: Homo sapiens; experiment: Transrepression of c-Myc G-quadruplex DNA in human SiHa cells at 8 uM after 96 hrs by DAPI staining based immunofluoresence microscopic method; type: cell-based
[9] = Inhibition of unwinding activity of His-tagged NM23-H2 to 5'-FAM/3'-TAMRA labeled c-Myc Pu18 G-quadruplex DNA (unknown origin) by FRET assay
[10] = molecular target: T1, Cellular tumor antigen p53 (Mus musculus, UniProt P02340); experiment: Effect on p53 phosphorylation in mouse primary mesangial cells up to 8 uM by Western blot method; type: ADME
T1 sequence (P02340 whole entry): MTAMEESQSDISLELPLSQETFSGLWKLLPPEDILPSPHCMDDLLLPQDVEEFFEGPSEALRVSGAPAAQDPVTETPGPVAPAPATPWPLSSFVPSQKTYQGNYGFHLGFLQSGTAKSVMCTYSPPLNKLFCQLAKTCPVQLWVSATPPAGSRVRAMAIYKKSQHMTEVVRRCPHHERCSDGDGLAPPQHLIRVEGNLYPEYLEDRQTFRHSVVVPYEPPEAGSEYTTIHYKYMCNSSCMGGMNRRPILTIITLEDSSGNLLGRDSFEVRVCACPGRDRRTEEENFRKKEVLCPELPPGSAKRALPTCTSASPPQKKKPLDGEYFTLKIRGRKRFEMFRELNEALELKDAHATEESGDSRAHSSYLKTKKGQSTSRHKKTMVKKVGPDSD

[11] = Transrepression of c-Myc MUT Pu43 DNA (unknown origin) expressed in human SiHa cells up to 8 uM after 48 hrs by luciferase reporter gene assay relative to control; type: cell-based
SiHa [12] = experiment: Growth inhibition of human SiHa cells transfected with NM23-H2 siRNA up to 16 uM after 100 hrs by real time cellular analysis; type: functional, cell-based
SiHa [13] = experiment: Growth inhibition of human SiHa cells after 50 hrs by real time cellular analysis; type: functional, cell-based
Homo sapiens [14] = species on record: Homo sapiens; experiment: Inhibition of NM23-H2 binding to c-Myc G-quadruplex DNA in human SiHa cells assessed as effect on BRCA1 protein expression by Western blot method; type: cell-based
Homo sapiens [15] = species on record: Homo sapiens; experiment: Inhibition of NM23-H2 binding to c-Myc G-quadruplex DNA in human SiHa cells assessed as effect on phosphorylated p53 protein expression by Western blot method; type: cell-based
[16] = Transrepression of c-Myc Pu43 G-quadruplex DNA (unknown origin) expressed in human SiHa cells after 48 hrs by luciferase reporter gene assay; type: cell-based
[17] = Transrepression of c-Myc Pu43 G-quadruplex DNA (unknown origin) expressed in human SiHa cells at 4 uM after 48 hrs by luciferase reporter gene assay relative to control; type: cell-based
[18] = Transrepression of c-Myc Pu43 G-quadruplex DNA (unknown origin) expressed in human SiHa cells at 6 uM after 48 hrs by luciferase reporter gene assay relative to control; type: cell-based
Homo sapiens [19] = species on record: Homo sapiens; experiment: Inhibition of NM23-H2 binding to c-Myc G-quadruplex DNA in human SiHa cells assessed as downregulation of c-Myc protein expression at 0.5 times cytotoxic IC50 after 4 days by Western blot method; type: cell-based
SiHa [20] = experiment: Inhibition of colony formation in human SiHa cells up to 4 uM after 7 days by crystal violet staining based assay; type: functional, cell-based
[21] = Inhibition of His-tagged NM23-H2 binding to 5'-biotin-labeled c-Myc Pu18 G-quadruplex DNA (unknown origin) after 10 mins by filter binding assay
[22] = Induction of G-quadruplex formation in wild type c-Myc Pu43 DNA (unknown origin) in pH 7.4 Tris HCl at 25 uM after overnight incubation in absence of Kcl by CD spectroscopic analysis
SiHa [23] = experiment: Effect on NM23-H2 mRNA level in human SiHa cells up to 8 uM after 4 days by RT-PCR method; type: functional, cell-based
[24] = Effect on NM23-H2 protein expression in mouse primary mesangial cells up to 8 uM by Western blot method; type: ADME, cell-based; conditions: primary mesangial cell
Homo sapiens [25] = species on record: Homo sapiens; experiment: Inhibition of NM23-H2 binding to c-Myc G-quadruplex DNA in human SiHa cells assessed as effect on cyclin D3 protein expression by Western blot method; type: cell-based
[26] = Effect on c-Myc protein expression in mouse primary mesangial cells up to 8 uM by Western blot method; type: ADME, cell-based; conditions: primary mesangial cell
[27] = Effect on BRCA1 protein expression in mouse primary mesangial cells up to 8 uM by Western blot method; type: ADME, cell-based; conditions: primary mesangial cell
Homo sapiens [28] = species on record: Homo sapiens; experiment: Inhibition of NM23-H2 binding to c-Myc promoter DNA in human SiHa cell nuclear extract after 4 days by ChIP analysis
Homo sapiens [29] = species on record: Homo sapiens; experiment: Inhibition of NM23-H2 binding to c-Myc G-quadruplex DNA in human SiHa cells assessed as effect on p27Kip1 protein expression by Western blot method; type: cell-based
[30] = Effect on CDK6 protein expression in mouse primary mesangial cells up to 8 uM by Western blot method; type: ADME, cell-based; conditions: primary mesangial cell
[31] = Inhibition of His-tagged NM23-H2 binding to 5'-biotin-labeled c-Myc Pu18 ssDNA (unknown origin) after 10 mins by filter binding assay
Homo sapiens [32] = species on record: Homo sapiens; experiment: Inhibition of NM23-H2 binding to c-Myc G-quadruplex DNA in human SiHa cells assessed as effect on cleaved PARP protein expression by Western blot method; type: cell-based
SiHa [33] = experiment: Effect on NM23-H2 protein expression in human SiHa cells up to 8 uM after 4 days by Western blot method; type: functional, cell-based
[34] = Effect on cleaved caspase-3 protein expression in mouse primary mesangial cells up to 8 uM by Western blot method; type: ADME, cell-based; conditions: primary mesangial cell
Homo sapiens [35] = species on record: Homo sapiens; experiment: Inhibition of NM23-H2 binding to c-Myc G-quadruplex DNA in human SiHa cells assessed as effect on p15 protein expression by Western blot method; type: cell-based
[36] = Stabilization of 5'-FAM/3'-TAMRA labeled c-Myc Pu18 G-quadruplex DNA (unknown origin) assessed as change in melting temperature at 1 uM after overnight incubation by FRET assay
Homo sapiens [37] = species on record: Homo sapiens; experiment: Inhibition of NM23-H2 binding to c-Myc G-quadruplex DNA in human SiHa cells assessed as effect on cleaved caspase-3 protein expression by Western blot method; type: cell-based
[38] = Effect on c-Myc protein expression in mouse primary mesangial cells up to 2.2 uM by Western blot method; type: ADME, cell-based; conditions: primary mesangial cell
SiHa [39] = experiment: Cytotoxicity against human SiHa cells assessed as reduction in cell viability up to 2.2 uM after 48 hrs by MTT assay; type: cell-based
[40] = Effect on BRCA1 protein expression in mouse primary mesangial cells up to 2.2 uM by Western blot method; type: ADME, cell-based; conditions: primary mesangial cell
[41] = Effect on CDK6 protein expression in mouse primary mesangial cells up to 2.2 uM by Western blot method; type: ADME, cell-based; conditions: primary mesangial cell
SiHa [42] = experiment: Effect on NM23-H2 mRNA level in human SiHa cells up to 2.2 uM after 4 days by RT-PCR method; type: functional, cell-based
SiHa [43] = experiment: Growth inhibition of human SiHa cells after 40 hrs by real time cellular analysis; type: functional, cell-based
[44] = Transrepression of c-Myc Pu43 G-quadruplex DNA (unknown origin) expressed in human SiHa cells at 1.65 uM after 48 hrs by luciferase reporter gene assay relative to control; type: cell-based
SiHa [45] = experiment: Inhibition of colony formation in human SiHa cells up to 1.1 uM after 7 days by crystal violet staining based assay; type: functional, cell-based
[46] = molecular target: T1, Cellular tumor antigen p53; experiment: Effect on p53 phosphorylation in mouse primary mesangial cells up to 2.2 uM by Western blot method; type: ADME
SiHa [47] = experiment: Effect on NM23-H2 protein expression in human SiHa cells up to 2.2 uM after 4 days by Western blot method; type: functional, cell-based
[48] = Transrepression of c-Myc Pu43 G-quadruplex DNA (unknown origin) expressed in human SiHa cells at 1.1 uM after 48 hrs by luciferase reporter gene assay relative to control; type: cell-based
SiHa [49] = experiment: Growth inhibition of human SiHa cells transfected with NM23-H2 siRNA up to 4.4 uM after 100 hrs by real time cellular analysis; type: functional, cell-based
[50] = Effect on cleaved caspase-3 protein expression in mouse primary mesangial cells up to 2.2 uM by Western blot method; type: ADME, cell-based; conditions: primary mesangial cell
Homo sapiens [51] = species on record: Homo sapiens; experiment: Transrepression of c-Myc G-quadruplex DNA in human SiHa cells at 2.2 uM after 96 hrs by DAPI staining based immunofluoresence microscopic method; type: cell-based
[52] = Transrepression of c-Myc Pu43 G-quadruplex DNA (unknown origin) expressed in human SiHa cells at 2.2 uM after 48 hrs by luciferase reporter gene assay relative to control; type: cell-based
[53] = Transrepression of c-Myc MUT Pu43 DNA (unknown origin) expressed in human SiHa cells up to 2.2 uM after 48 hrs by luciferase reporter gene assay relative to control; type: cell-based
[54] = Effect on NM23-H2 protein expression in mouse primary mesangial cells up to 2.2 uM by Western blot method; type: ADME, cell-based; conditions: primary mesangial cell

- inhibition [3]: Active
- inhibition [5]: Active
- Ratio [6]: 4.3
- inhibition [9]: Active
- inhibition [21]: Active
- Activity [22]: Active
- inhibition (Homo sapiens [28]): Dose-dependent effect
- inhibition [31]: Active
- ΔTm [36]: 12.1 °C
SMILES: O=C(NCCCN1CCCC1)c1ccc(/C=C2\CCn3c2nc2cc(NCCN4CCCC4)c(F)cc2c3=O)cc1
- Activity [1]: 42.3%
- inhibition (Homo sapiens [2]): Dose-dependent effect
- Activity (SiHa [4]): Non-Toxic
- growth inhibition (GI) [7]: Non-Toxic
- Activity (Homo sapiens [8]): Active
- Activity [10]: Non-Toxic
- Activity [11]: inactive
- growth inhibition (GI) (SiHa [12]): inactive
- growth inhibition (GI) (SiHa [13]): Dose-dependent effect
- inhibition (Homo sapiens [14]): Dose-dependent effect
- inhibition (Homo sapiens [15]): Dose-dependent effect
- Activity [16]: Dose-dependent effect
- Activity [17]: 73.4%
- Activity [18]: 58.6%
- inhibition (Homo sapiens [19]): Active
- inhibition (SiHa [20]): Active
- Activity (SiHa [23]): inactive
- Activity [24]: Non-Toxic
- inhibition (Homo sapiens [25]): Dose-dependent effect
- Activity [26]: Non-Toxic
- Activity [27]: Non-Toxic
- inhibition (Homo sapiens [29]): Dose-dependent effect
- Activity [30]: Non-Toxic
- inhibition (Homo sapiens [32]): Dose-dependent effect
- Activity (SiHa [33]): inactive
- Activity [34]: Non-Toxic
- inhibition (Homo sapiens [35]): Dose-dependent effect
- inhibition (Homo sapiens [37]): Dose-dependent effect

- inhibition [3]: Active
- inhibition [5]: Active
- Ratio [6]: 3.4
- Activity [22]: Active
- inhibition (Homo sapiens [28]): Dose-dependent effect
- ΔTm [36]: 12.9 °C
SMILES: CCN(CC)CCNC(=O)c1ccc(/C=C2\CCn3c2nc2cc(NCCCN4CCCC4)c(F)cc2c3=O)cc1
- Activity [38]: Non-Toxic
- inhibition (Homo sapiens [2]): Dose-dependent effect
- Activity (SiHa [39]): Non-Toxic
- Activity [40]: Non-Toxic
- Activity [41]: Non-Toxic
- growth inhibition (GI) [7]: Non-Toxic
- Activity (SiHa [42]): inactive
- growth inhibition (GI) (SiHa [43]): Dose-dependent effect
- Activity [44]: 41.4%
- inhibition (SiHa [45]): Active
- inhibition (Homo sapiens [14]): Dose-dependent effect
- inhibition (Homo sapiens [15]): Dose-dependent effect
- Activity [46]: Non-Toxic
- Activity (SiHa [47]): inactive
- Activity [48]: 65.7%
- Activity [16]: Dose-dependent effect
- inhibition (Homo sapiens [19]): Active
- growth inhibition (GI) (SiHa [49]): inactive
- Activity [50]: Non-Toxic
- Activity (Homo sapiens [51]): Active
- inhibition (Homo sapiens [25]): Dose-dependent effect
- inhibition (Homo sapiens [29]): Dose-dependent effect
- Activity [52]: 38%
- inhibition (Homo sapiens [32]): Dose-dependent effect
- Activity [53]: inactive
- inhibition (Homo sapiens [35]): Dose-dependent effect
- inhibition (Homo sapiens [37]): Dose-dependent effect
- Activity [54]: Non-Toxic
